Patent US4556715A, “Nicotinic acid derivatives” (Kyorin Pharmaceutical Co., Ltd., priority 1980, dated 1985)
Like-named read-outs stand apart in the source and are kept apart here.

Experiments:
[1] = in vivo; conditions: mouse, po, p o, male ICR mice
Source text: The present compounds were given to 6 week-old male mice of the ICR strain and their acute toxicity was examined.

[2] = system: serum and liver lipid levels in rats; assay: Serum and liver lipid levels and relative liver weight in rats (25 mg/kg, 10 days); type: in vivo, male Wistar rats; conditions: Table 4; for Liver lipid levels Ch / Liver lipid levels PL / Liver lipid levels TG / Relative liver weight / Serum lipid levels Ch / Serum lipid levels PL / Serum lipid levels TG: 25 mg/kg p.o. 10 days, Mean ± S.E. (n = 7); for Liver lipid levels Ch, relative to Control (100) / Liver lipid levels PL, relative to Control (100) / Liver lipid levels TG, relative to Control (100) / Relative liver weight, relative to Control (100) / Serum lipid levels Ch, relative to Control (100) / Serum lipid levels PL, relative to Control (100) / Serum lipid levels TG, relative to Control (100): in parentheses
Experimental: (3) The present compounds and KCD-232 were orally given to male Wistar rats weighing 160-180 g once a day at a dose of 25 mg/kg b.w. for 10 days. Rats were subjected to fast for 4 hr immediately after the last administration of compounds, thereafter they were sacrificed by decapitation and blood was collected, clotted and centrifuged to obtain serum. The liver was removed quickly and weighed. Total lipids were extracted from the serum and liver, and then the levels of total Ch, TG and PL were determined with colorimetric methods.

[3] = system: serum and liver lipid levels in rats; assay: Serum and liver lipid levels and relative liver weight in rats (100 mg/kg, 10 days); type: in vivo, Male rats of the Wistar strain; conditions: for response vs control in vivo at 100 mg/kg: Rattus norvegicus, po; for response vs control in vivo at 100 mg/kg / Relative liver weight, relative to Control (100): in parentheses, Control = (100); for Liver lipid levels Ch / Liver lipid levels PL / Liver lipid levels TG / Relative liver weight / Serum lipid levels Ch / Serum lipid levels PL / Serum lipid levels TG: Mean ± S.E. (n = 9)
Experimental: (2) Male rats of the Wistar strain weighing 160-180 g were fed a stock deit (CE-2, Japan CLEA, Tokyo) and water ad libitum. The present compounds and KCD-232 were suspended, respectively, in a 0.5% of CMC solution and give orally to rats once a day at a dose of 100 mg/kg b.w. for 10 days.
Control rats were received the 0.5% CMC solution alone. The diet was withdrawn immediately after the last administration of compounds. Animals were sacrificed by decapitation 4 hr after the last administration and blood was collected, clotted and centrifuged to obtain serum. The liver was excised quickly and weighed. Total lipids were extracted from the serum and liver, and the levels of Ch, TG and PL were determined colorimetrically.

[4] = system: serum and liver lipid levels in normal rats; assay: Effects on relative liver weight, serum and liver lipid levels in normal rats (100 mg/kg, 7 days); type: in vivo, Male Wistar strain rats; conditions: for Liver lipid levels Ch / Liver lipid levels PL / Liver lipid levels TG / Serum lipid levels Ch / Serum lipid levels PL / Serum lipid levels TG / Relative liver weight / Liver lipid levels Ch, relative to Control (100) / Liver lipid levels PL, relative to Control (100) / Liver lipid levels TG, relative to Control (100) / Relative liver weight, relative to Control (100) / Serum lipid levels Ch, relative to Control (100) / Serum lipid levels PL, relative to Control (100) / Serum lipid levels TG, relative to Control (100): Table 1; for Liver lipid levels Ch / Liver lipid levels PL / Liver lipid levels TG / Serum lipid levels Ch / Serum lipid levels PL / Serum lipid levels TG: fasted overnight; for Liver lipid levels Ch / Liver lipid levels PL / Liver lipid levels TG / Serum lipid levels Ch / Serum lipid levels PL / Serum lipid levels TG / Relative liver weight: mean ± S.E. (n = 6); for Liver lipid levels Ch, relative to Control (100) / Liver lipid levels PL, relative to Control (100) / Liver lipid levels TG, relative to Control (100) / Relative liver weight, relative to Control (100) / Serum lipid levels Ch, relative to Control (100) / Serum lipid levels PL, relative to Control (100) / Serum lipid levels TG, relative to Control (100): in parentheses
Experimental: (1) Effects on relative liver weight, serum and liver lipid levels in normal rats
Male Wistar strain rats, weighing 180-210 g were orally administered the present compounds (X=Cl, n1 =2, 3, 4 and n2 =1) and 4-(4-chlorobenzyloxy)benzyl nicotinate (KCD-232), being X=Cl, n1 =1, n2 =1, respectively, which were suspended in 0.5% carboxymethyl cellulose (CMC) solution once a day at a dose of 100 mg/kg b.w. for 7 days. The last administration was occured in rats fasted overnight. At 4 hr later blood was withdrawn from jugular vein, clotted and centrifuged to obtain serum. The liver was rapidly removed and weighed. Total lipids were extracted from the serum and liver, and cholesterol (Ch), triglycerides (TG) and phospholipids (PL) levels were determined.

[5] = 240 h, Table 2, read-out: Liver lipid levels PL, relative to Control (100)
[6] = Table 2, read-out: Liver lipid levels Ch, relative to Control (100)
[7] = Table 2, read-out: Liver lipid levels TG, relative to Control (100)
[8] = Table 2, read-out: Serum lipid levels Ch, relative to Control (100)
[9] = Table 2, read-out: Serum lipid levels PL, relative to Control (100)
[10] = Table 2, read-out: Serum lipid levels TG, relative to Control (100)
[11] = Table 2, 100 mg/kg p.o. 10 days
[12] = Table 3, 100 mg/kg p.o. 10 days

SMILES: O=C(OCc1ccc(OCCCc2ccc(Cl)cc2)cc1)c1cccnc1 [n1=3, n2=1, 4-[3-(4-Chlorophenyl)propoxy]benzyl nicotinate]
- LD50 [1]: > 4000 mg/kg
- Liver lipid levels Ch [2]: 3.16 ± 0.13 mg/g liver
- Liver lipid levels PL [2]: 40.3 ± 0.9 mg/g liver
- Liver lipid levels TG [2]: 3.97 ± 0.35 mg/g liver
- Relative liver weight [2]: 3.84 ± 0.13 g/100 g b.w.
- Serum lipid levels Ch [2]: 60.3 ± 5.3 mg/dL
- Serum lipid levels PL [2]: 83.2 ± 8.5 mg/dL
- Serum lipid levels TG [2]: 24.2 ± 2.8 mg/dL
- Liver lipid levels Ch, relative to Control (100) [2]: 97.2
- Liver lipid levels PL, relative to Control (100) [2]: 106.1
- Liver lipid levels TG, relative to Control (100) [2]: 53.4
- Relative liver weight, relative to Control (100) [2]: 109
- Serum lipid levels Ch, relative to Control (100) [2]: 76.9
- Serum lipid levels PL, relative to Control (100) [2]: 76.9
- Serum lipid levels TG, relative to Control (100) [2]: 64.0
- lipid lowering effects compared with KCD-232 (in words) ([3]; 100 mg/kg p.o. 10 days): the lipid lowering effects were superior to that of KCD-232
- response vs control in vivo at 100 mg/kg [3, 5]: 104%
- response vs control in vivo at 100 mg/kg [3, 6]: 101%
- response vs control in vivo at 100 mg/kg [3, 7]: 59.3%
- response vs control in vivo at 100 mg/kg [3, 8]: 71.9%
- response vs control in vivo at 100 mg/kg [3, 9]: 65.2%
- response vs control in vivo at 100 mg/kg [3, 10]: 24.7%
- Liver lipid levels Ch [3, 11]: 3.09 ± 0.15 mg/g liver
- Liver lipid levels PL [3, 11]: 39.8 ± 0.8 mg/g liver
- Liver lipid levels TG [3, 11]: 3.75 ± 0.27 mg/g liver
- Relative liver weight [3, 11]: 3.89 ± 0.10 g/100 g b.w.
- Serum lipid levels Ch [3, 11]: 62.3 ± 3.1 mg/dL
- Serum lipid levels PL [3, 11]: 96.8 ± 5 mg/dL
- Serum lipid levels TG [3, 11]: 30.6 ± 2.8 mg/dL
- Relative liver weight, relative to Control (100) ([3]; Table 2): 101
- serum Ch, TG and PL (in words) ([4]; 100 mg/kg p.o. 7 days, compared with control): significantly reduced serum Ch, TG and PL
- Liver lipid levels Ch ([4]; 100 mg/kg p.o. 7 days): 3.57 ± 0.15 mg/g liver
- Liver lipid levels PL ([4]; 100 mg/kg p.o. 7 days): 34.1 ± 1.8 mg/g liver
- Liver lipid levels TG ([4]; 100 mg/kg p.o. 7 days): 5.95 ± 1.83 mg/g liver
- Serum lipid levels Ch ([4]; 100 mg/kg p.o. 7 days): 48.4 ± 5.4 mg/dL
- Serum lipid levels PL ([4]; 100 mg/kg p.o. 7 days): 64.4 ± 5.2 mg/dL
- Serum lipid levels TG ([4]; 100 mg/kg p.o. 7 days): 18 ± 2.5 mg/dL
- Relative liver weight ([4]; 100 mg/kg p.o. 7 days): 3.20 ± 0.06 g/100 g b.w.
- Liver lipid levels Ch, relative to Control (100) [4]: 101
- Liver lipid levels PL, relative to Control (100) [4]: 92
- Liver lipid levels TG, relative to Control (100) [4]: 81
- Relative liver weight, relative to Control (100) [4]: 104
- Serum lipid levels Ch, relative to Control (100) [4]: 64
- Serum lipid levels PL, relative to Control (100) [4]: 63
- Serum lipid levels TG, relative to Control (100) [4]: 53

SMILES: O=C(OCc1ccc(OCc2ccc(Cl)cc2)cc1)c1cccnc1 [KCD-232, 4-(4-chlorobenzyloxy)benzyl nicotinate, reference compound]
- LD50 [1]: 345 mg/kg
- Liver lipid levels Ch [2]: 2.98 ± 0.08 mg/g liver
- Liver lipid levels PL [2]: 40.2 ± 0.6 mg/g liver
- Liver lipid levels TG [2]: 4.36 ± 0.65 mg/g liver
- Relative liver weight [2]: 3.72 ± 0.07 g/100 g b.w.
- Serum lipid levels Ch [2]: 63.5 ± 3.1 mg/dL
- Serum lipid levels PL [2]: 89 ± 4.4 mg/dL
- Serum lipid levels TG [2]: 31.3 ± 2.9 mg/dL
- Liver lipid levels Ch, relative to Control (100) [2]: 91.7
- Liver lipid levels PL, relative to Control (100) [2]: 105.8
- Liver lipid levels TG, relative to Control (100) [2]: 58.6
- Relative liver weight, relative to Control (100) [2]: 105
- Serum lipid levels Ch, relative to Control (100) [2]: 81.4
- Serum lipid levels PL, relative to Control (100) [2]: 82.3
- Serum lipid levels TG, relative to Control (100) [2]: 82.8
- response vs control in vivo at 100 mg/kg [3, 5]: 99.2%
- response vs control in vivo at 100 mg/kg ([3]; 240 h, Table 3, read-out: Liver lipid levels PL, relative to Control (100)): 99.7%
- response vs control in vivo at 100 mg/kg [3, 6]: 104%
- response vs control in vivo at 100 mg/kg [3, 7]: 63.3%
- response vs control in vivo at 100 mg/kg [3, 8]: 72.5%
- response vs control in vivo at 100 mg/kg [3, 9]: 67.3%
- response vs control in vivo at 100 mg/kg [3, 10]: 32.7%
- response vs control in vivo at 100 mg/kg ([3]; Table 3, read-out: Liver lipid levels Ch, relative to Control (100)): 103%
- response vs control in vivo at 100 mg/kg ([3]; Table 3, read-out: Liver lipid levels TG, relative to Control (100)): 65.2%
- response vs control in vivo at 100 mg/kg ([3]; Table 3, read-out: Serum lipid levels Ch, relative to Control (100)): 70%
- response vs control in vivo at 100 mg/kg ([3]; Table 3, read-out: Serum lipid levels PL, relative to Control (100)): 62.1%
- response vs control in vivo at 100 mg/kg ([3]; Table 3, read-out: Serum lipid levels TG, relative to Control (100)): 36.1%
- Liver lipid levels Ch [3, 11]: 3.15 ± 0.08 mg/g liver
- Liver lipid levels PL [3, 11]: 37.8 ± 0.6 mg/g liver
- Liver lipid levels TG [3, 11]: 4.00 ± 0.28 mg/g liver
- Relative liver weight [3, 11]: 4.05 ± 0.05 g/100 g b.w.
- Serum lipid levels Ch [3, 11]: 62.8 ± 3 mg/dL
- Serum lipid levels PL [3, 11]: 100 ± 4.6 mg/dL
- Serum lipid levels TG [3, 11]: 40.5 ± 2.7 mg/dL
- Relative liver weight, relative to Control (100) ([3]; Table 2): 105
- Liver lipid levels Ch [3, 12]: 2.39 ± 0.07 mg/g liver
- Liver lipid levels PL [3, 12]: 36.1 ± 0.4 mg/g liver
- Liver lipid levels TG [3, 12]: 4.67 ± 0.42 mg/g liver
- Relative liver weight [3, 12]: 3.71 ± 0.07 g/100 g b.w.
- Serum lipid levels Ch [3, 12]: 68.3 ± 3.1 mg/dL
- Serum lipid levels PL [3, 12]: 96.8 ± 3.4 mg/dL
- Serum lipid levels TG [3, 12]: 45.3 ± 3.5 mg/dL
- Relative liver weight, relative to Control (100) ([3]; Table 3): 98
- Liver lipid levels Ch ([4]; 100 mg/kg p.o. 7 days): 3.88 ± 0.12 mg/g liver
- Liver lipid levels PL ([4]; 100 mg/kg p.o. 7 days): 36.6 ± 0.7 mg/g liver
- Liver lipid levels TG ([4]; 100 mg/kg p.o. 7 days): 21.45 ± 2.23 mg/g liver
- Serum lipid levels Ch ([4]; 100 mg/kg p.o. 7 days): 58.5 ± 5 mg/dL
- Serum lipid levels PL ([4]; 100 mg/kg p.o. 7 days): 77.7 ± 6.4 mg/dL
- Serum lipid levels TG ([4]; 100 mg/kg p.o. 7 days): 23.4 ± 2.2 mg/dL
- Relative liver weight ([4]; 100 mg/kg p.o. 7 days): 3.20 ± 0.10 g/100 g b.w.
- Liver lipid levels Ch, relative to Control (100) [4]: 110
- Liver lipid levels PL, relative to Control (100) [4]: 99
- Liver lipid levels TG, relative to Control (100) [4]: 291
- Relative liver weight, relative to Control (100) [4]: 104
- Serum lipid levels Ch, relative to Control (100) [4]: 77
- Serum lipid levels PL, relative to Control (100) [4]: 76
- Serum lipid levels TG, relative to Control (100) [4]: 69
- liver TG level (in words) ([4]; last administration in rats fasted overnight): remarkably rose liver TG level
